Data on 36 compounds can be found in patent US20050090522A1 (priority 2001, published 2005).

Structures are written as SMILES. Read-outs that look alike come from different tables or passages of the source. Bounds are passed on as bounds.

The test system of the test is HIV-1. Briefly: HIV-1 single-round infectious luciferase reporter virus (pseudotype) assay in HeLa CD4 CCR5 cells. It is filed as cell-based. In a few lines: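 HeLa CD4 CCR5 cells (5×10^4/well, DMEM + 10% FBS) were treated with compound (final <10 μM) and infected with single-round luciferase reporter virus made in 293 cells, at MOI ~0.01. Luciferase was read 72 h post infection. EC50 came from 10-concentration percent-inhibition curves fitted to a four-parameter logistic model.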
(In a reporter assay the amount or activity of a reporter protein is the signal.)

[1] abbreviates: Human immunodeficiency virus 1, HeLa-CD4/CCR5, read-out: EC50 Group from TABLE 1, HeLa CD4 CCR5 cells, single-round infectious luciferase reporter virus.
Where [2] appears, read: Human immunodeficiency virus 1, HeLa-CD4/CCR5, read-out: EC50 Group from Table 1, Table 2-1, HeLa CD4 CCR5 cells, single-round luciferase reporter virus.
Where [3] appears, read: Human immunodeficiency virus 1, HeLa-CD4/CCR5, read-out: EC50 Group from Table 1, Table 4, HeLa CD4 CCR5 cells, single-round luciferase reporter virus.

The term EC50 denotes the concentration at which the effect is half-maximal. Regarding `CCNc1cnc(-c2ncc(OC)c3c(C(=O)C(=O)N4CCN(C(=O)c5ccccn5)CC4)c[nH]c23)cn1` [Example 179, 1-picolinoyl-4-[(4-methoxy-7-(2-ethylaminopyrazin-5-yl)-6-azaindol-3-yl)-oxoacetyl]piperazine], the EC50 under setting [1] is below 1000 nM.
On the same count and under the same terms, for `COc1cnc(-c2cnc(C)cn2)c2[nH]cc(C(=O)C(=O)N3CCN(C(=O)c4ccccn4)CC3)c12` [Example 180, 1-picolinoyl-4-[(4-methoxy-7-(2-methylpyrazin-5-yl)-6-azaindol-3-yl)-oxoacetyl]piperazine] the value was below 1000 nM.
Same read-out and setting: to `COc1cnc(-c2cnc(C3CC3)cn2)c2[nH]cc(C(=O)C(=O)N3CCN(C(=O)c4ccccn4)CC3)c12` [Example 181, 1-picolinoyl-4-[(4-methoxy-7-(2-cyclopropanyl-pyrazin-5-yl)-6-azaindol-3-yl)-oxoacetyl]piperazine] belongs below 1000 nM; to `COc1cnc(-c2ncc(OC)c3c(C(=O)C(=O)N4CCN(C(=O)c5ccccn5)CC4)c[nH]c23)cn1` [Example 182, 1-picolinoyl-4-[(4-methoxy-7-(2-methoxy-pyrazin-5-yl)-6-azaindol-3-yl)-oxoacetyl]piperazine], below 1000 nM.
Same read-out and setting: to `COc1cnc(-c2cc3ccccc3o2)c2[nH]cc(C(=O)C(=O)N3CCN(C(=O)c4ccccn4)CC3)c12` [Example 183, 1-picolinoyl-4-[(4-methoxy-7-(benzofuran-2-yl)-6-azaindol-3-yl)-oxoacetyl]piperazine] belongs below 1000 nM; to `CCN(CC)C(=O)c1cnc(-c2ncc(OC)c3c(C(=O)C(=O)N4CCN(C(=O)c5ccccn5)CC4)c[nH]c23)cn1` [Example 184, 1-picolinoyl-4-[(4-methoxy-7-(2-diethylaminocarbonyl-pyrazin-5-yl)-6-azaindol-3-yl)-oxoacetyl]piperazine], below 1000 nM; to `COc1cnc(-c2cnc(N3CCCC3)cn2)c2[nH]cc(C(=O)C(=O)N3CCN(C(=O)c4ccccn4)CC3)c12` [Example 185], below 1000 nM.
On to `COc1cnc(-c2cnc3ccccc3n2)c2[nH]cc(C(=O)C(=O)N3CCN(C(=O)c4ccccn4)CC3)c12` [Example 186, 1-picolinoyl-4-[(4-methoxy-7-(quinoxakin-2-yl)-6-azaindol-3-yl)-oxoacetyl]piperazine], for which, under setting [1], the half-maximal effective concentration (EC50) is below 1000 nM.
The same measure, in the same setting: to `COc1cnc(-n2ccc(C(F)(F)F)n2)c2[nH]cc(C(=O)C(=O)N3CCN(C(=O)c4ccccc4)CC3)c12` [Example 192, 1-benzoyl-4-[(4-methoxy-7-(3-trifluoromethylpyrazol-1-yl)-6-azaindol-3-yl)-oxoacetyl]piperazine] belongs below 1000 nM.
Take `COc1cnc(-c2cnccn2)c2[nH]cc(C(=O)C(=O)N3CCN(C(=O)c4ccccn4)C(C)C3)c12` (stereo not drawn) [Example 194, 2-methyl-1-picolinoyl-4-[(4-methoxy-7-(pyrazin-2-yl)-6-azaindol-3-yl)-oxoacetyl]piperazine]: the EC50 under setting [2] is below 1000 nM.
For `COc1cnc(-c2cnccn2)c2[nH]cc(C(=O)C(=O)N3CCN(C(=O)c4cnccn4)CC3)c12` [Example 195], the EC50 under setting [1] is below 1000 nM.
The same measure, in the same setting: for `COc1cnc(-c2cnccn2)c2[nH]cc(C(=O)C(=O)N3CCN(C(=O)c4ccno4)CC3)c12` [Example 196] the value was below 1000 nM.
For the compound `COc1cnc(-c2cnccn2)c2[nH]cc(C(=O)C(=O)N3CCN(C(=O)c4csnn4)CC3)c12` [Example 197], the EC50 under setting [1] is below 1000 nM.
In the case of `COc1cnc(-c2cnccn2)c2[nH]cc(C(=O)C(=O)N3CCN(C(=O)c4nc(N)n[nH]4)CC3)c12` [Example 198], the EC50 under setting [1] is below 1000 nM.
Still for that read-out and setting: to `CCCOC(=O)N1CCN(C(=O)C(=O)c2c[nH]c3c(-c4cnccn4)ncc(OC)c23)CC1` [Example 199] belongs below 1000 nM.
As for `COc1cnc(-c2cnccn2)c2[nH]cc(C(=O)C(=O)N3CCN(C(=O)c4ncccc4C)CC3)c12` [Example 200], the EC50 under setting [1] is below 1000 nM.
Same read-out and setting: to `COc1cnc(-c2cnccn2)c2[nH]cc(C(=O)C(=O)N3CCN(C(=O)c4cccc(C)n4)CC3)c12` [Example 201] belongs below 1000 nM.
Turning to `CCOC(=O)c1cc(-c2ccnc3c(C(=O)C(=O)N4CCN(C(=O)c5ccccc5)CC4)c[nH]c23)n[nH]1` [Example 202, 5-{3-[2-(4-Benzoyl-piperazin-1-yl)-2-oxo-acetyl]-1H-pyrrolo[3,2-b]pyridin-7-yl}-2H-pyrazole-3-carboxylic acid ethyl ester], under setting [3], the EC50 was below 1000 nM.
Same read-out and setting: to `O=C(C(=O)N1CCN(C(=O)c2ccccc2)CC1)c1c[nH]c2c(-c3cc4ccccc4o3)ccnc12` [Example 203, 1-(7-benzofuran-2-yl-1H-pyrrolo[3,2-b]pyridin-3-yl)-2-(4-benzoyl-piperazin-1-yl)-ethane-1,2-dione] belongs below 1000 nM.
With `CCOC(=O)c1cc(-c2ncc(F)c3c(C(=O)C(=O)N4CCN(C(=O)c5ccccc5)CC4)c[nH]c23)n[nH]1` [Example 209], under setting [1], the EC50 was below 1000 nM.
The same measure, in the same setting: to `O=C(NCCN1CCOCC1)c1cc(-c2ncc(F)c3c(C(=O)C(=O)N4CCN(C(=O)c5ccccc5)CC4)c[nH]c23)n[nH]1` [Example 213] belongs below 1000 nM.
The same measure, in the same setting: to `O=C(C(=O)N1CCN(C(=O)c2ccccc2)CC1)c1c[nH]c2c(-n3cncn3)ncc(F)c12` [Example 215] belongs below 1000 nM.
Still for that read-out and setting: for `O=C(C(=O)N1CCN(C(=O)c2ccccc2)CC1)c1c[nH]c2c(-n3ccnc3)ncc(F)c12` [Example 218] the value was below 1000 nM.
`O=C(C(=O)N1CCN(C(=O)c2ccccc2)CC1)c1c[nH]c2c(-n3cccn3)ncc(F)c12` [Example 219]: the EC50 under setting [1] was below 1000 nM.
As for `CCCc1ccn(-c2ncc(OC)c3c(C(=O)C(=O)N4CCN(C(=O)c5ccccc5)[C@H](C)C4)c[nH]c23)n1` [Example 231, (R)-1-benzoyl-2-methyl-4-[(4-methoxy-7-(3-propyl-pyrazol-1-yl)-6-azaindol-3-yl)-oxoacetyl]piperazine], the 50% effective concentration (EC50) under setting [2] was below 1000 nM.
On the same count and under the same terms, for `COc1cnc(-n2ccc(C3CCC3)n2)c2[nH]cc(C(=O)C(=O)N3CCN(C(=O)c4ccccc4)[C@H](C)C3)c12` [Example 232, (R)-1-benzoyl-2-methyl-4-[(4-methoxy-7-(3-cycloputyl-pyrazol-1-yl)-6-azaindol-3-yl)-oxoacetyl]piperazine] the value was below 1000 nM.
As to `CCOc1ccn(-c2ncc(OC)c3c(C(=O)C(=O)N4CCN(C(=O)c5ccccc5)[C@H](C)C4)c[nH]c23)n1` [Example 233, (R)-1-benzoyl-2-methyl-4-[(4-methoxy-7-(3-ethoxy-pyrazol-1-yl)-6-azaindol-3-yl)-oxoacetyl]piperazine], the EC50 under setting [2] is below 1000 nM.
The same measure, in the same setting: for `COc1cnc(-n2ccc(CCC(=O)O)n2)c2[nH]cc(C(=O)C(=O)N3CCN(C(=O)c4ccccc4)[C@H](C)C3)c12` [Example 234, (R)-1-benzoyl-2-methyl-4-[(4-methoxy-7-(3-(2-hydroxylcarbonylethan-1-yl)-pyrazol-1-yl)-6-azaindol-3-yl)-oxoacetyl]piperazine] the value was below 1000 nM; for `COc1cnc(-n2ccc(C(C)O)n2)c2[nH]cc(C(=O)C(=O)N3CCN(C(=O)c4ccccc4)[C@H](C)C3)c12` (stereo partly drawn) [Example 235, (R)-1-benzoyl-2-methyl-4-[(4-methoxy-7-(3-(1-hydroxylethyl)-pyrazol-1-yl)-6-azaindol-3-yl)-oxoacetyl]piperazine], below 1000 nM.
Consider `COc1cnc(-n2cc(CO)cn2)c2[nH]cc(C(=O)C(=O)N3CCN(C(=O)c4ccccc4)C[C@H]3C)c12` [Example 237, (R)-1-benzoyl-3-methyl-4-[(4-methoxy-7-(4-hydroxylmethyl-pyrazol-1-yl)-6-azaindol-3-yl)-oxoacetyl]piperazine], for which the 50% effective concentration (EC50) under setting [2] is below 1000 nM.
Consider `COCc1ccn(-c2ncc(OC)c3c(C(=O)C(=O)N4CCN(C(=O)c5ccccc5)[C@H](C)C4)c[nH]c23)n1` [Example 238, (R)-1-benzoyl-2-methyl-4-[(4-methoxy-7-(3-methoxymethyl-pyrazol-1-yl)-6-azaindol-3-yl)-oxoacetyl]piperazine], for which, under setting [2], the EC50 is below 1000 nM.
On the same count and under the same terms, for `COc1cnc(-n2ccc(CN(C)C)n2)c2[nH]cc(C(=O)C(=O)N3CCN(C(=O)c4ccccc4)[C@H](C)C3)c12` [Example 239, (R)-1-benzoyl-2-methyl-4-[(4-methoxy-7-(3-(N,N-dimethylamino)methyl-pyrazol-1-yl)-6-azaindol-3-yl)-oxoacetyl]piperazine] the value was below 1000 nM.
Turning to `COc1cnc(-n2nccc2C)c2[nH]cc(C(=O)C(=O)N3CCN(C(=O)c4ccccc4)CC3)c12` [Example 240, 1-benzoyl-4-[(4-methoxy-7-(5-methyl-pyrazol-1-yl)-6-azaindol-3-yl)-oxoacetyl]piperazine], the EC50 under setting [1] is below 1000 nM.
Consider `COc1cnc(-n2nccc2C)c2[nH]cc(C(=O)C(=O)N3CCN(C(=O)c4ccccc4)[C@H](C)C3)c12` [Example 242, (R)-1-benzoyl-2-methyl-4-[(4-methoxy-7-(5-methyl-pyrazol-1-yl)-6-azaindol-3-yl)-oxoacetyl]piperazine], for which the EC50 under setting [2] is below 1000 nM.
Consider `COc1cnc(-n2ccc(C(C)(C)C)n2)c2[nH]cc(C(=O)C(=O)N3CCN(C(=O)c4ccccc4)[C@H](C)C3)c12` [Example 243, (R)-1-benzoyl-2-methyl-4-[(4-methoxy-7-(3-t-butyl-pyrazol-1-yl)-6-azaindol-3-yl)-oxoacetyl]piperazine], for which, under setting [2], the EC50 was below 1000 nM.
Still for that read-out and setting: to `COc1cnc(-n2ccc(C(F)(F)F)n2)c2[nH]cc(C(=O)C(=O)N3CCN(C(=O)c4ccccc4)[C@H](C)C3)c12` [Example 244, (R)-1-benzoyl-2-methyl-4-[(4-methoxy-7-(3-trifluoromethyl-pyrazol-1-yl)-6-azaindol-3-yl)-oxoacetyl]piperazine] belongs below 1000 nM.
